Reference: patent publication US10590413B2, “Chiral control” (WAVE LIFE SCIENCES LTD., priority 2012, dated 2020)
pIC50: −log10 of the molar value. Like-named read-outs stand apart in the source and are kept apart here. Strand notation (5' to 3'): a small letter for the sugar, then the base; units joined by * are phosphorothioate-linked, units joined directly phosphodiester-linked; [ ] holds rarer units or linkages, { } end groups; capitals alone tell only the bases. [Rp] = phosphorothioate linkage, Rp; [Sp] = phosphorothioate linkage, Sp; d = 2'-deoxy (DNA)

Tests used:
NK activity = conditions: cited from earlier work; for % 2C11 Specific Lysis, Effector:Target 50:1 / % 2C11 Specific Lysis, Effector:Target 100:1: 2C11 targets; for % YAC-1 Specific Lysis, Effector:Target 50:1 / % YAC-1 Specific Lysis, Effector:Target 100:1: YAC-1 targets
Mouse B Cells = conditions: mean and std. dev. of at least 3 experiments, compared to wells with no added ODN, cited from earlier work
[1] = tested on: Apolipoprotein B (Apo B) (NM_000384); assay: Apo B gene expression in Hep3B cells after Lipofectamine 2000 transfection, real-time PCR SYBR green (Example 50); type: cell-based, Homo Sapiens; conditions: for IC50: read-out: IC50 (nM) (rounded up to single digit); for pIC50: Complete IC50 data evaluated by SYBR green, 24 hours, 3 biological replicates, read-out: IC50; for activity compared to Mipomersen (120) / potency compared to the corresponding stereorandom oligonucleotide mixture (Oligonucleotide 118): from Table E-19 IC50, Hep3B
Protocol: After checking OD all oligonucleotide candidate molecules were diluted to a starting concentration of 20 μM. Multidose forward transfection experiment was setup in 96-well plates using Hep3B cells (ATCC®, Cat. HB-8064™) using Lipofectamine 2000 (Life Technologies, Cat. 11668-019) transfection reagent.
2×10^4 Hep3B cells per well were seeded and incubated for 24 hours at 37° C. in a CO2 incubator in 100 μl of antibiotic free MEM medium (Life Technologies, Cat. 11095098) containing 10% FBS and 1% Glutamax I (Life Technologies, Cat. 35050061). Twelve dilutions were setup in nuclease free water (Table E-16).
For each well, 0.5 μL of Lipofectamine 2000 were mixed with 9.5 μL of Opti MEM I reduced serum medium (Life Technologies, Cat. 31985062) and incubated for 5 minutes. Following incubation, 10 μL of each of the candidates at the reported concentrations was mixed with the diluted Lipofectamine 2000 by gentle pipetting. The mixture was then incubated for 20 minutes at room temperature to allow for complex formation. During this time the cell growth medium was replaced with 80 μL of fresh antibiotic free MEM as previously described. 20 μL of lipid-oligo complex was gently mixed into each well bringing the total volume to 100 μL. The cells were then incubated for 24 hours at 37° C. in a CO2 incubator.
After 24 hour incubation the cell growth medium was removed and RNA was extracted using a Dynabeads mRNA Direct kit (Life Technologies, Cat. 61012) per the instructions provided in the kit manual without modifications. This magnetic Oligo (dT)^25 bead system allows for cost-effective and robust high-throughput poly (A) RNA extraction circumventing DNAse treatment. RNA was eluted in nuclease-free water and stored at −80° C.
10 μL of RNA was used in a 20 μL cDNA synthesis reaction using a High Capacity cDNA Reverse Transcription Kit (Life Technologies, Cat. 4374967) using the kit protocol with RNAse Inhibitor. The reverse transcription was performed in a 96-well format on a C1000 Touch thermal cycler (Biorad, Cat. 185-1196EDU).
Gene expression was measured by quantitative PCR using a LightCycler® 480 SYBR Green I Master (Roche, Cat. 04707516001) on LightCycler 480 Real-Time PCR instrument. Primers for the Homo Sapiens sequences of the target Apolipoprotein B (Apo B) (NM_000384) and endogenous control Glyceralydhyde-3-phosphate dehydrogenase (GAPDH) (NM_002046) were designed and ordered from IDT (Table E-17).
Measurement of the target and endogenous control was performed in separate wells using material from the same cDNA template. SYBR green assay PCR conditions were setup as described in the SYBR Green I Master protocol (Table E-18).
The data is a result of 3 biological replicates. All samples were compared to Naïve untransfected control. The following results were observed when evaluating gene expression by real-time PCR using SYBR green (Table E-19, FIG. 5).

complementary RNA = assay: Thermal denaturation experiment (Tm) of DNA strand with complementary RNA (Example 49); type: binding; conditions: duplex with complementary RNA, equimolar 0.5 μM in 1×PBS; first derivative of 254 nm absorbance curve
Protocol: Each DNA strand was mixed with complementary RNA in equimolar concentration of 0.5 μM in 1×PBS. Total 2.5 mL solution was prepared for each duplex and the mixture was heated at 90° C. for 2 min and was allowed to cool down over the course of several hours. The mixtures were then stored at 4° C. for 2 hrs. Absorbance at 254 nm was recorded at an interval of 0.5 min starting the temperature gradient from 15° C. to 90° C. with rise of 0.5° C./minute, using a Perkin Elmer UV-spectrophotometer equipped with a Peltier unit. The 254 nm absorbance was plotted against the temperature and the Tm values were calculated from the respective first derivative of each curve.

[2] = Apo B mRNA, Hep3B cells, 24 hours after transfection

Row | Substance | Tm (° C.) ± 0.5 (complementary RNA) [°C] | IC50 [1, 2] [nM] | pIC50 ([1]; Apo B mRNA, Hep3B cells) | activity compared to Mipomersen (120) [1] | potency compared to the corresponding stereorandom oligonucleotide mixture (Oligonucleotide 118) [1] | further results
1 | 1 (DNA GCTAGACGTTAGCGT; chemistry not given here) [Oligonucleotide 1] |  |  |  |  |  | % 2C11 Specific Lysis, Effector:Target 50:1 (NK activity; Effector:Target 50:1): 38.7%; % 2C11 Specific Lysis, Effector:Target 100:1 (NK activity; Effector:Target 100:1): 47.2%; % 2C11 Specific Lysis (NK activity; Effector:Target 50:1): 38.7%; % YAC-1 Specific Lysis (NK activity; Effector:Target 50:1): 16.1%; % 2C11 Specific Lysis (NK activity; Effector:Target 100:1): 47.2%; % YAC-1 Specific Lysis (NK activity; Effector:Target 100:1): 24.5%; % YAC-1 Specific Lysis, Effector:Target 50:1 (NK activity; Effector:Target 50:1): 16.1%; % YAC-1 Specific Lysis, Effector:Target 100:1 (NK activity; Effector:Target 100:1): 24.5%; Stimulation Index, 3H Uridine (Mouse B Cells; US 6,239,116 Table 1): 6.1 ± 0.8; Stimulation Index, IgM Production (Mouse B Cells; US 6,239,116 Table 1): 17.9 ± 3.6; Stimulation Index, 3H Uridine (Mouse B Cells): 6.1 ± 0.8
2 | 3Dd (DNA GAGAACGCTGGACCTTCCAT; Z modified cytosine, further chemistry not given here) [Oligonucleotide 3Dd] |  |  |  |  |  | % 2C11 Specific Lysis, Effector:Target 50:1 (NK activity; Effector:Target 50:1): 37.0%; % 2C11 Specific Lysis, Effector:Target 100:1 (NK activity; Effector:Target 100:1): 40.0%; % 2C11 Specific Lysis (NK activity; Effector:Target 50:1): 37.0%; % YAC-1 Specific Lysis (NK activity; Effector:Target 50:1): 17.1%; % 2C11 Specific Lysis (NK activity; Effector:Target 100:1): 40.0%; % YAC-1 Specific Lysis (NK activity; Effector:Target 100:1): 27.0%; % YAC-1 Specific Lysis, Effector:Target 50:1 (NK activity; Effector:Target 50:1): 17.1%; % YAC-1 Specific Lysis, Effector:Target 100:1 (NK activity; Effector:Target 100:1): 27.0%; Stimulation Index, 3H Uridine (Mouse B Cells; US 6,239,116 Table 1): 1.2 ± 0.2; Stimulation Index, IgM Production (Mouse B Cells; US 6,239,116 Table 1): 1.0 ± 0.4; Stimulation Index, 3H Uridine (Mouse B Cells): 1.2 ± 0.2
3 | 119 (DNA GCCTCAGTCTGCTTCGCACC; unmodified DNA) [Oligonucleotide 119] | 73.4 |  |  |  |  | IC50 (nM) (rounded up to single digit) [1, 2]: Not detected
4 | (Rp, Rp, Rp, Sp, Sp, Sp, Sp, Sp, Sp, Sp, Sp, Sp, Sp, Sp, Sp, Sp, Rp, Rp, Rp)-d[GsCsCsTsCsAsGsTsCsTsGsCsTsTsCsGsCsAsCsC] (DNA GCCTCAGTCTGCTTCGCACC; DNA, linkages [Rp]3 [Sp]13 [Rp]3 (s phosphorothioate, o phosphodiester), methylation of C not given here) [Oligonucleotide 110] | 62.9 | 7 | 8.13 |  |  | 
5 | (Rp, Rp, Sp, Rp, Rp, Sp, Rp, Rp, Sp, Rp, Rp, Sp, Rp, Rp, Sp, Rp, Rp, Sp, Rp)-d[GsCsCsTsCsAsGsTsCsTsGsCsTsTsCsGsCsAsCsC] (DNA GCCTCAGTCTGCTTCGCACC; DNA, linkages [Rp][Rp][Sp][Rp][Rp][Sp][Rp][Rp][Sp][Rp][Rp][Sp][Rp][Rp][Sp][Rp][Rp][Sp][Rp] (s phosphorothioate, o phosphodiester), methylation of C not given here) [Oligonucleotide 114] | 65.2 | 5 | 8.28 |  |  | 
6 | (Rp, Sp, Rp, Rp, Sp, Rp, Rp, Sp, Rp, Rp, Sp, Rp, Rp, Sp, Rp, Rp, Sp, Rp, Rp)d[GsCsCsTsCsAsGsTsCsTsGsCsTsTsCsGsCsAsCsC] (DNA dG[Rp]dC[Sp]dC[Rp]dT[Rp]dC[Sp]dA[Rp]dG[Rp]dT[Sp]dC[Rp]dT[Rp]dG[Sp]dC[Rp]dT[Rp]dT[Sp]dC[Rp]dG[Rp]dC[Sp]dA[Rp]dC[Rp]dC) [Oligonucleotide 116] | 64.8 | 2 | 8.72 | more active | more potent | 
7 | (Rp, Sp, Rp, Sp, Rp, Sp, Rp, Sp, Rp, Sp, Rp, Sp, Rp, Sp, Rp, Sp, Rp, Sp, Rp)-d[GsCsCsTsCsAsGsTsCsTsGsCsTsTsCsGsCsAsCsC] (DNA GCCTCAGTCTGCTTCGCACC; DNA, linkages [Rp][Sp][Rp][Sp][Rp][Sp][Rp][Sp][Rp][Sp][Rp][Sp][Rp][Sp][Rp][Sp][Rp][Sp][Rp] (s phosphorothioate, o phosphodiester), methylation of C not given here) [Oligonucleotide 107] | 64.5 | 4 | ~8.38 | more active |  | 
8 | (Rp, Sp, Sp, Sp, Sp, Sp, Sp, Sp, Sp, Sp, Sp, Sp, Sp, Sp, Sp, Sp, Sp, Sp, Rp)-d[GsCsCsTsCsAsGsTsCsTsGsCsTsTsCsGsCsAsCsC] (DNA GCCTCAGTCTGCTTCGCACC; DNA, linkages [Rp]1 [Sp]17 [Rp]1 (s phosphorothioate, o phosphodiester), methylation of C not given here) [Oligonucleotide 106] | 61.8 | 4 | ~8.41 | more active |  | 
9 | (Sp, Rp, Rp, Rp, Rp, Rp, Rp, Rp, Rp, Rp, Rp, Rp, Rp, Rp, Rp, Rp, Rp, Rp, Sp)-d[GsCsCsTsCsAsGsTsCsTsGsCsTsTsCsGsCsAsCsC] (DNA GCCTCAGTCTGCTTCGCACC; DNA, linkages [Sp]1 [Rp]17 [Sp]1 (s phosphorothioate, o phosphodiester), methylation of C not given here) [Oligonucleotide 105] | 66.5 | 3 | 8.54 | more active | more potent | 
10 | (Sp, Rp, Rp, Sp, Rp, Rp, Sp, Rp, Rp, Sp, Rp, Rp, Sp, Rp, Rp, Sp, Rp, Rp, Sp)-d[GsCsCsTsCsAsGsTsCsTsGsCsTsTsCsGsCsAsCsC] (DNA GCCTCAGTCTGCTTCGCACC; DNA, linkages [Sp][Rp][Rp][Sp][Rp][Rp][Sp][Rp][Rp][Sp][Rp][Rp][Sp][Rp][Rp][Sp][Rp][Rp][Sp] (s phosphorothioate, o phosphodiester), methylation of C not given here) [Oligonucleotide 115] | 65.2 | 3 | 8.57 | more active | more potent | 
11 | (Sp, Rp, Sp, Rp, Sp, Rp, Sp, Rp, Sp, Rp, Sp, Rp, Sp, Rp, Sp, Rp, Sp, Rp, Sp)-d[GsCsCsTsCsAsGsTsCsTsGsCsTsTsCsGsCsAsCsC] (DNA GCCTCAGTCTGCTTCGCACC; DNA, linkages [Sp][Rp][Sp][Rp][Sp][Rp][Sp][Rp][Sp][Rp][Sp][Rp][Sp][Rp][Sp][Rp][Sp][Rp][Sp] (s phosphorothioate, o phosphodiester), methylation of C not given here) [Oligonucleotide 108] | 64.8 | 3 | 8.50 |  |  | 
12 | (Sp, Sp, Sp, Rp, Rp, Rp, Rp, Rp, Rp, Rp, Rp, Rp, Rp, Rp, Rp, Rp, Sp, S, Sp)d[GsCsCsTsCsAsGsTsCsTsGsCsTsTsCsGsCsAsCsC] (DNA GCCTCAGTCTGCTTCGCACC; DNA, linkages [Sp]3 [Rp]13 [Sp]3 (s phosphorothioate, o phosphodiester), methylation of C not given here) [Oligonucleotide 109] | 65.8 | 2 | 8.76 | more active | more potent | 
